ChEMBL document CHEMBL6153124, “Structural Chemistry of Helicase Inhibition” (J Med Chem, 2025)

Assays:
[1] = molecular target: SWI/SNF-related matrix-associated actin-dependent regulator of chromatin subfamily A member 2 (Homo sapiens, UniProt P51531); test: Inhibition of SMARCA2 (unknown origin)
[2] = Inhibition of Coxsackievirus B3 2C protein
[3] = Inhibition of HSV-1 helicase DNA dependent ATPase activity assessed as reduction in helicase-primase complex; design: species or system Human alphaherpesvirus 1
[4] = molecular target: Eukaryotic initiation factor 4A-I (Homo sapiens, UniProt P60842); test: Inhibition of recombinant full length 6xHis-tagged EIF4A1 (unknown origin) by FP assay
[5] = Binding affinity to Coxsackievirus B3 2C protein assessed as dissociation constant
[6] = molecular target: T1, Bifunctional 3'-5' exonuclease/ATP-dependent helicase WRN (Homo sapiens, UniProt Q14191); test: Inhibition of N-terminal Hexa-histidine-tagged human recombinant WRN helicase domain (517 to 945 residues) extracted from Baculovirus infected Sf9 cells by fluorescence based analysis
[7] = molecular target: T1, Bifunctional 3'-5' exonuclease/ATP-dependent helicase WRN; test: Inhibition of N-terminal WRN (unknown origin)

Chain of Eukaryotic initiation factor 4A-I (P60842 whole entry): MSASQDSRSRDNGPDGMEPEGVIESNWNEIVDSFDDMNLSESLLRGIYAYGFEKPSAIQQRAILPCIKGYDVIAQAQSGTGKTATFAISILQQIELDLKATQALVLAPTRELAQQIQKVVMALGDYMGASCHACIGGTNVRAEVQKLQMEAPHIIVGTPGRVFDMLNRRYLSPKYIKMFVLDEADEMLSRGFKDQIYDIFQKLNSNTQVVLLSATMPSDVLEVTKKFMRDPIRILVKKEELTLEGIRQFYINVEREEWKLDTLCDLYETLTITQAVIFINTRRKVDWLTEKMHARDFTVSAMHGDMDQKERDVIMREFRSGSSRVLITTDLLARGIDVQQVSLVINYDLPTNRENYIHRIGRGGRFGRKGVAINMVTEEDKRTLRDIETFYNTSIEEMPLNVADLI
T1 sequence (Q14191 whole entry, the tested form may be a part): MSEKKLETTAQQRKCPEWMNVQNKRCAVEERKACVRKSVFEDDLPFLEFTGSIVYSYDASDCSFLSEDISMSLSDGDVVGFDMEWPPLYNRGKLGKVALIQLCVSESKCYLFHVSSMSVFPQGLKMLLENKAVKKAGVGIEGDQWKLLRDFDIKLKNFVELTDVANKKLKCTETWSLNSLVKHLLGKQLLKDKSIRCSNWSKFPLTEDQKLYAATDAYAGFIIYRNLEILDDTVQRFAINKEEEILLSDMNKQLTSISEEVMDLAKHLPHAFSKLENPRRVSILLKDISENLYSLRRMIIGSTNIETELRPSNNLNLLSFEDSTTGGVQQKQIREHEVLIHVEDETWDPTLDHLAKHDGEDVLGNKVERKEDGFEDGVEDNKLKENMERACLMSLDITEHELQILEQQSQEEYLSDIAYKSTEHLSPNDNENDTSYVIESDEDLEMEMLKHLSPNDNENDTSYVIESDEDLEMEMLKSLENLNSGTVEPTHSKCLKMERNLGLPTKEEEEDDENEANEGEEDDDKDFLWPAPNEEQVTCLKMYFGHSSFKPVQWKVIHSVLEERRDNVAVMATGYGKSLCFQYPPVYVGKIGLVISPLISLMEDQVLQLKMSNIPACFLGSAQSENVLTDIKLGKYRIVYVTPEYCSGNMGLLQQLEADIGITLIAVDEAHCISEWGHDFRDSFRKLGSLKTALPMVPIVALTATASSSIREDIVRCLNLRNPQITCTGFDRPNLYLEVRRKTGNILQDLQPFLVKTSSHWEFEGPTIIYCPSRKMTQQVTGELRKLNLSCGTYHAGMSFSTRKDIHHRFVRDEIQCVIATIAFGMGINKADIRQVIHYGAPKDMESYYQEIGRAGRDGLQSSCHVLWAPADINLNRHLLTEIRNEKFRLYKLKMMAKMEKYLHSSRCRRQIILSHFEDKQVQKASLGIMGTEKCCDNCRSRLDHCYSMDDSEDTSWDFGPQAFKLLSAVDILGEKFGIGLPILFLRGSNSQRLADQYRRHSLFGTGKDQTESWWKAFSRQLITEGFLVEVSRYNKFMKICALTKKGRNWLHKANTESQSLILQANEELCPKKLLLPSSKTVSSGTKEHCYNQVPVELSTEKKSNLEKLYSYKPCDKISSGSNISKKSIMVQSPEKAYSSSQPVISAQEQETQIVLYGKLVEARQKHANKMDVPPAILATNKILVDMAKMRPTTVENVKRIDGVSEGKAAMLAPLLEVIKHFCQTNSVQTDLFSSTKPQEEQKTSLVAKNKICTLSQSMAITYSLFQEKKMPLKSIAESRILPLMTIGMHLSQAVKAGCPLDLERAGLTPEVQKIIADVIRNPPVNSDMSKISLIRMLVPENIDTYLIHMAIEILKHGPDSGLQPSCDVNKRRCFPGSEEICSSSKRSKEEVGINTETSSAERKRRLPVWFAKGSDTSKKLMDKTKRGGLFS
Chain of SWI/SNF-related matrix-associated actin-dependent regulator of chromatin subfamily A member 2 (P51531 whole entry): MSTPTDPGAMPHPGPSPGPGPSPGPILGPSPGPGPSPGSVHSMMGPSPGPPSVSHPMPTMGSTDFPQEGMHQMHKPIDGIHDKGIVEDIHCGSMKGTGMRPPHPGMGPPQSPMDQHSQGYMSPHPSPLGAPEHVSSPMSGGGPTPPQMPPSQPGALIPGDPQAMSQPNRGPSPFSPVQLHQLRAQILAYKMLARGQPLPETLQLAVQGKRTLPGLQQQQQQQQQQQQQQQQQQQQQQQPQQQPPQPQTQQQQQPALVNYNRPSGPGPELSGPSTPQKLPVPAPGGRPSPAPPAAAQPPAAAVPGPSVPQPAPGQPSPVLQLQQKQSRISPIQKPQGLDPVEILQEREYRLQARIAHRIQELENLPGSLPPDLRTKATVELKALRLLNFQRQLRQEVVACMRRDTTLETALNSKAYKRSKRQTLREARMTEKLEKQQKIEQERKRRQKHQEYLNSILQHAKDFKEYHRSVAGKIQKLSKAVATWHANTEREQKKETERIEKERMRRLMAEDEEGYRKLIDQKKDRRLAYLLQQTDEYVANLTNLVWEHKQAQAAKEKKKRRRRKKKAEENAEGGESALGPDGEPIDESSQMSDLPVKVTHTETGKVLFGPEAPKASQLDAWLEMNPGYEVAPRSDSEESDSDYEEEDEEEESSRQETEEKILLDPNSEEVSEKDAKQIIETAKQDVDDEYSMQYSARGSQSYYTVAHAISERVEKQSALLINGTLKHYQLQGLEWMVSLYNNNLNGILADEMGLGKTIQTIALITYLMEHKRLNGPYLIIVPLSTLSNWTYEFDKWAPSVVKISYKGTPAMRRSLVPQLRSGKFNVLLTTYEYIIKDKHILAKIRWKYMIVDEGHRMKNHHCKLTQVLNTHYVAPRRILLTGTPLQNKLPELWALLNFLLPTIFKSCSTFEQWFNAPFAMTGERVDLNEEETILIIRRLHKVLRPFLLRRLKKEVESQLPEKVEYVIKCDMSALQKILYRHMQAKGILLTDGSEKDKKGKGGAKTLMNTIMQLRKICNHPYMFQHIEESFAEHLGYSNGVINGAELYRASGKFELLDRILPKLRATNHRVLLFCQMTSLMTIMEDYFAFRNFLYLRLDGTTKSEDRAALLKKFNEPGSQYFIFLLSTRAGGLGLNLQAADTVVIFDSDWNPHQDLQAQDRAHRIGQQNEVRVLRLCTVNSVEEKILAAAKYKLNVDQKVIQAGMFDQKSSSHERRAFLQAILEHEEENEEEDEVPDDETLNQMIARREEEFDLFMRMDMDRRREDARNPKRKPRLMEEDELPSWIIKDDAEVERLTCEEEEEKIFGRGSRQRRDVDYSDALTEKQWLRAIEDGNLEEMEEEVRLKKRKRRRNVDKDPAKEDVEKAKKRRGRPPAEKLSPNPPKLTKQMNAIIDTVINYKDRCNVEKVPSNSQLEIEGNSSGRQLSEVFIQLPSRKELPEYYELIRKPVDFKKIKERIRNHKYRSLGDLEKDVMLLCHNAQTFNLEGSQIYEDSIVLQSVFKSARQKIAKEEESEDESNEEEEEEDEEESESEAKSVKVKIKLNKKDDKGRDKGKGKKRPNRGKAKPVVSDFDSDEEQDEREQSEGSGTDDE

O=C(Nc1cc(C(F)F)ns1)Nc1cc(F)ncc1CO showed an IC50 [1] of under 5 nM.

With CNCC[C@H](Oc1ccc(C(F)(F)F)cc1)c1ccccc1 the EC50 [2] was 5 µM.

Cc1cccc(C)c1N(CC(=O)Nc1ccc(-c2ncon2)cc1)C(=O)C1CCS(=O)(=O)CC1 showed an IC50 [3] of 78 nM.

Work on CC(/C=C/C(C)=C/[C@@H]1Cc2nc(cs2)CC[C@@H](N)CC(=O)O[C@@H](C)C/C(C)=C/C=C\C(=O)O1)=C\CN(C)C yielded an IC50 [4] of 1 nM.

In the case of CNCCC(Oc1ccc(C(F)(F)F)cc1)c1ccccc1 (centres undefined) [FLUOXETINE], the EC50 [2] is reported as about 5 µM and the Kd [5] is reported as 9.5 µM.

Compound COC(=O)[C@H]1[C@@H](O)[C@@]2(O)c3c(OC)cc(O[C@@H]4O[C@@H]([C@H](O)CO)CO[C@H]4OC)cc3O[C@@]2(c2ccc(OC)cc2)[C@@H]1c1ccccc1 [SILVESTROL] has an IC50 [4] of 60 nM.

With CS(=O)(=O)CC[C@@H](NC(=O)c1cnc(C(F)(F)F)nc1Oc1ccccc1)C1CC1 the IC50 [6] was 140 nM and the IC50 [7] was 140 nM.
